According to patent publication US20130017616A1, “Methods For Treating Inflammation” (Vanderbilt University - Center for Technology Transfer and …, priority 2011, published 2013):

Key:
RNase [1] = experiment: LC-MS/MS analysis of RNase modifications (halogenation of Tyr-92 and Tyr-97); format: biochemical; conditions: RNase with HOCl or HOBr, with or without PM
Protocol: FIG. 3A. Modification of functionally important chlorinated Tyr species (Y-92 and Y-97) in RNase by HOCl and protection by PM. *P<0.05, control vs. HOCl (n=3); **P<0.05, HOCl vs. HOCl+PM (n=3).
FIG. 3B. Modification of functionally important chlorinated Tyr species (Y-92 and Y-97) in RNase by HOBr and protection by PM. *P<0.05, control vs. HOBr; **P<0.05, HOBr vs. HOBr+PM.
LC-MS/MS analysis of RNase modifications—The site-specific modifications in RNase were analyzed by tandem mass spectrometry. The samples were prepared using the spin filter protocol for proteomic analysis. RNase samples were digested either with trypsin. The data-dependent scanning was performed using a LTQ Orbitrap^TM (Thermo Fischer Scientific, San Jose, Calif.) mass spectrometer equipped with an Eksigent AS1 autosampler and an Eksigent 1D+HPLC pump attached directly to the instrument's nanospray source. The peptides were separated on a capillary tip, 100 μm×18 cm, packed with C18 resin (Jupiter C18, 3 μm, 300 Å, Phenomenex, Torrance, Calif.) using an inline vented trapping column that was 100 μm×6 cm. […]
The data generated from the data-dependent LC-MS/MS experiments were analyzed using Sequest. […] The peak containing the peptide of interest was extracted from the chromatogram and the area of the peak was determined using Xcalibur™ software. […]

RNase [2] = target: T1, RNase (Bos taurus, UniProt P61823); experiment: Measurements of RNase activity after incubation with HOCl, HOBr or PM; format: biochemical; conditions: for effect on RNase activity: RNase 15 μg/mL incubated with different concentrations of the substance at 37° C. for 2 h
T1 construct: purchased Worthington Biochemical Corporation
T1 sequence (P61823 27-150): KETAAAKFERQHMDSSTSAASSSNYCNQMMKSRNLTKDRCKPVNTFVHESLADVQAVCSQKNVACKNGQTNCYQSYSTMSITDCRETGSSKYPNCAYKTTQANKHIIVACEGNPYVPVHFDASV
Protocol: FIG. 1. […] RNase (15 μg/mL) was incubated alone or with different concentrations of HOCl, HOBr or PM at 37° C. for 2 h. Enzymatic activity was determined as described under Experimental Procedures.
Measurements of RNase Activity—RNase activity was determined by measuring the formation of acid-soluble oligonucleotide as described by Kalnitsky et al, with some modifications previously described by Voziyan et al. For the assay, 100 μL of 3 μg/mL RNase in 100 mM sodium acetate, pH 5.0, was mixed with 100 μL of 1% yeast RNA in the same buffer. After the incubation at 37° C. for 5 min, the reaction was stopped by the addition of 100 μL of an ice-cold solution of 0.8% lanthanum nitrate in 18% perchloric acid. The incubations were kept on ice for 5 min to ensure complete precipitation of undigested RNA and then centrifuged at 12000 g for 10 min. An aliquot of the supernatant (20 μL) was diluted to 1 mL with distilled water, the amount of digested (solubilized) RNA was determined by measuring the absorbance at 260 nm. The activity of RNase incubated either alone or with PM or an amino acid substitute at 37° C. was monitored separately and used as a reference for each incubation time.

[3] = tested on: integrin α1β1 binding to collagen IV; experiment: Modification of collagen IV and integrin binding assay (solid phase); parameters: species or system Human; conditions: 0.1 mM HOCl or HOBr with 0.1 mM PM, 1 h; integrin 1 μg/mL, 2 h at 30° C.
Protocol: FIG. 6B. EHS Collagen IV was coated onto 96-well plate overnight at 4° C. Collagen IV was incubated with 0.1 mM HOCl or HOBr either with or without 0.1 mM PM for 1 h at 37° C. Collagen IV was then incubated with 1 μg/mL of integrin α1β1 for 2 h at 30° C. Integrin binding was detected in solid phase binding assay using integrin α1β1 antibody. The bars represent background-subtracted […] binding±SD (n=4). *P<0.05, control vs. HOCl or HOBr; **P<0.05, HOCl or HOBr vs. HOCl+PM or HOBr+PM.
Modification of Collagen IV and Integrin Binding Assay—20 μg/mL of type IV collagen in 20 mM sodium phosphate buffer, 7.5, was immobilized on 96 well plates at 4° C. overnight. Nonspecific binding sites were blocked with 1% BSA in TBS for 2 hr at 30° C. as previously described. Wells were washed five times with either TBS or 100 mM sodium phosphate, pH 7.5, before being incubated in the same buffer with or without HOCl/HOBr alone or HOCl/l HOBr plus PM. […] After extensive washing, the bound antibodies were detected using alkaline phosphatase-conjugated anti-mouse IgG antibodies. p-Nitrophenyl phosphate substrate (Sigma) was added to the wells, and absorbance was read at 410 nm. Readings from the samples containing EDTA were subtracted from all the data to obtain the baseline corrected magnesium dependent binding.

EHS collagen IV = experiment: Chlorination of type IV collagen by HOCl, N-chloramine assay; format: biochemical, murine; conditions: HOCl with equimolar PM, 1 h
Protocol: N-Chloramine Assay/ TMB Assay—The presence of N-chloramines were determined by the method of Witko et al. [3] and Dypbukt et al. [4]. The former method is based on the colorimetric measurement of triiodide ions formed by the oxidation of potassium iodide (KI) in solution. Chloroamine-T, a commercially available source of N-chloramine, was used to calibrate the assay. 100 mM chloramine-T solution was made fresh in distilled H2O. The 100 mM chloramines-T was diluted to final concentrations ranging from 20 to 100 μM immediately before use. The direct oxidation of Kl by NaOCl was also determined and these values were subtracted as background from the corresponding treated samples. The resulting difference represented the amount of N-chloramine present in each sample. In the latter method the developing reagent was composed of 2 mM TMB in 400 mM acetate buffer, pH 5.4, containing 10% dimethlyforamide and 100 μM sodium iodide. This solution was prepared by dissolving TMB in 100% DMF, diluting with acetate buffer to get the desired final concentration of TMB, and then adding sodium iodide. When the developing reagent was mixed with the solutions of chloramines, the final concentration of TMB was always at least 10 times that of the concentration of chloramines. This prevented further oxidation of the blue product. […]

| halogenation of Tyr-92 and Tyr-97 residues in RNase (RNase [1]) | effect on RNase activity (RNase [2]) | protection of RNase enzymatic activity against hypohalous acids (RNase [2]; RNase with HOCl or HOBr plus PM) | binding of integrin α1β1 to collagen IV in the presence of HOCl or HOBr [3] | SMILES | chlorination of collagen IV by hypochlorous acid (protein chloramine content) (EHS collagen IV) |
| --- | --- | --- | --- | --- | --- |
| inhibited halogenation | no effect on activity | protected enzymatic activity | protected binding | Cc1ncc(CO)c(CN)c1O [PM, Pyridoxamine] | significantly inhibited chlorination |
|  | inhibit RNase activity |  |  | OCl [HOCl, hypochlorous acid] |  |

| SMILES | halogenation of Tyr-92 and Tyr-97 residues in RNase (RNase [1]) | effect on RNase activity (RNase [2]) | protection of RNase enzymatic activity against hypohalous acids (RNase [2]; RNase with HOCl or HOBr plus PM) | binding of integrin α1β1 to collagen IV in the presence of HOCl or HOBr [3] | chlorination of collagen IV by hypochlorous acid (protein chloramine content) (EHS collagen IV) |
| --- | --- | --- | --- | --- | --- |
| OBr [HOBr, hypobromous acid] |  | inhibit RNase activity |  |  |  |
